Assay results taken from ChEMBL document CHEMBL3593242, “Crystal structures of the apo form and a complex of human LMW-PTP with a phosphonic acid provide new evidence of a secondary site potentially related to the anchorage of natural substrates” (Bioorg Med Chem, 2015).

Legend:
[1] = molecular target: T1, Low molecular weight phosphotyrosine protein phosphatase (Mus musculus, UniProt Q9D358); assay: Competitive inhibition of mouse LMW-PTP expressed in Escherichia coli using pNPP substrate by Dixon plot
T1 sequence (Q9D358 whole entry): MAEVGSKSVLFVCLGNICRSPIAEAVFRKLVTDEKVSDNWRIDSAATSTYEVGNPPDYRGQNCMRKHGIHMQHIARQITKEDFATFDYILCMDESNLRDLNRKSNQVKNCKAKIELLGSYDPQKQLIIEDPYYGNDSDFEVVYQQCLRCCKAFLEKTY

[2] = molecular target: T2, Ectonucleotide pyrophosphatase/phosphodiesterase family member 3 (Bos taurus, UniProt P15396); assay: Inhibition of bovine intestinal 5'-nucleotide phosphodiesterase using 4-nitrophenyl phenylphosphonate substrate by spectrophotometry
T2 sequence (P15396 whole entry): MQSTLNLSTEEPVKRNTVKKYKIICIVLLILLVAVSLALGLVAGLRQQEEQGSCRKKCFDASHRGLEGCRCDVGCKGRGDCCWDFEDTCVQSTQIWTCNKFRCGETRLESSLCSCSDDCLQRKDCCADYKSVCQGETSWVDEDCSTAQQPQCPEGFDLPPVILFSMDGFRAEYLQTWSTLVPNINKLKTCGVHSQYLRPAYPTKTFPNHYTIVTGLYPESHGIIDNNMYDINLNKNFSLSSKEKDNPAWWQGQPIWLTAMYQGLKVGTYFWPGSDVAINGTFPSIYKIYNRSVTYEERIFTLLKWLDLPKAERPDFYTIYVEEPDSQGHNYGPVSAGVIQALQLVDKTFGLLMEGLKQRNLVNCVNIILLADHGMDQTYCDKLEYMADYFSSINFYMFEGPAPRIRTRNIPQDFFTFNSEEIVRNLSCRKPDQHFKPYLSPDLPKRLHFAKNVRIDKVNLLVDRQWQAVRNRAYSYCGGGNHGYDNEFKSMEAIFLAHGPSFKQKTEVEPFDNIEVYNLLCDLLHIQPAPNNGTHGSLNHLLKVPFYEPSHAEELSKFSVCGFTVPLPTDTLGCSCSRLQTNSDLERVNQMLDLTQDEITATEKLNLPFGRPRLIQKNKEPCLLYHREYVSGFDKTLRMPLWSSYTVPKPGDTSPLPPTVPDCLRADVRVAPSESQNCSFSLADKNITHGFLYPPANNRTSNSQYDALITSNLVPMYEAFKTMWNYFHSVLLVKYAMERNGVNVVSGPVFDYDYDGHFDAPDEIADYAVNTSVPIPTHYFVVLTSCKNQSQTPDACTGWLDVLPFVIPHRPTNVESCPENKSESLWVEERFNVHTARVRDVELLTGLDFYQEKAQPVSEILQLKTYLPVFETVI

[3] = Inhibition of bovine heart acid phosphatase; parameters: species or system Bos taurus
[4] = Inhibition of Yersinia-protein YopH using pNPP substrate
[5] = molecular target: T3, Tyrosine-protein phosphatase non-receptor type 1 (Homo sapiens, UniProt P18031); assay: Inhibition of PTP1B (unknown origin) using […] substrate
T3 sequence (P18031 whole entry): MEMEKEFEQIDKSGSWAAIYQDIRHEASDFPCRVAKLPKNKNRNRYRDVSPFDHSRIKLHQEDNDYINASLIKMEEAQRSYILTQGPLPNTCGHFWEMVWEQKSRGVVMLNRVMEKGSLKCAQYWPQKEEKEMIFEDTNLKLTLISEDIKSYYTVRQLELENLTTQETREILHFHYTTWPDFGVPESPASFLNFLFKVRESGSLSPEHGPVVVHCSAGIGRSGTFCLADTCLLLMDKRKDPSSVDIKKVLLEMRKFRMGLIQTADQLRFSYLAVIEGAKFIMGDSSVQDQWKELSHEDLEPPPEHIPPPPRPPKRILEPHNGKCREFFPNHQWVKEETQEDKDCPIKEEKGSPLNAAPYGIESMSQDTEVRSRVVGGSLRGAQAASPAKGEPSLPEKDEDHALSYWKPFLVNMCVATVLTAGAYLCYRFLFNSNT

[6] = molecular target: Alkaline phosphatase, placental type (Homo sapiens, UniProt P05187); assay: Inhibition of human placental alkaline phosphatase using p-nitrophenyl phosphate substrate
Sequence of Alkaline phosphatase, placental type (P05187 whole entry): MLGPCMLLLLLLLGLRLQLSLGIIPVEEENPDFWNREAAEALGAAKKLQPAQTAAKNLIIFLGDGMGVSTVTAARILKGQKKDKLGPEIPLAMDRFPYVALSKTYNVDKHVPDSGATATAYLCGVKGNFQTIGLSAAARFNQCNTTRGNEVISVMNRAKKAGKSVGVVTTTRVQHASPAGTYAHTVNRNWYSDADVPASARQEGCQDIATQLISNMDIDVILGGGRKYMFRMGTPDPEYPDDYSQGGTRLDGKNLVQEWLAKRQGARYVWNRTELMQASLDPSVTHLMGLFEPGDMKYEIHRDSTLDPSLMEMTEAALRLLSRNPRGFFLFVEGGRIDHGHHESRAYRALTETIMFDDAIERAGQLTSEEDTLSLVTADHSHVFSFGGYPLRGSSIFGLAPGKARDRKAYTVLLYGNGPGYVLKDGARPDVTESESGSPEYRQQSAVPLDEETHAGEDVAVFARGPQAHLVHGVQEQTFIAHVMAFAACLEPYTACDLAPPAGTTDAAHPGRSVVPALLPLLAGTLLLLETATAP

**Q.** With `O=[N+]([O-])c1ccc(CP(=O)(O)O)cc1` as the molecule, how does the Ki [1] read?
**A.** 124 µM

**Q.** With `O=P(O)(O)Cc1ccc(CCl)cc1` as the molecule, how does the Ki [1] read?
**A.** 47 µM

**Q.** With `O=P(O)(O)Cc1ccccc1` [BENZYLPHOSPHONIC ACID] as the molecule, how does the Ki [2] read?
**A.** 1400 µM

**Q.** And the Ki [3]?
**A.** 4600 µM

**Q.** What about the Ki [4] of the same molecule?
**A.** 5000 µM

**Q.** And the Ki [5]?
**A.** 3000 µM

**Q.** What about the Ki [6] of the same molecule?
**A.** 580 µM
